Common to all, as to assay type: functional, cell-based
The test system of assay [1] is HeLa. Description: Cytotoxicity against human HeLa cells.
Assay [2] deals with SMMC-7721. Description: Cytotoxicity against human SMMC7721 cells.
In assay [3] the test system is HCT-8. Description: Cytotoxicity against human HCT8 cells.
Assay [4] can be described thus: Cytotoxicity against human Eca109 cells. As to conditions: ECa-109.

For the compound `CC(=O)O[C@@]12CO[C@@H]1C[C@H](O)[C@@]1(C)C(=O)[C@H](O)C3=C(C)[C@@H](OC(=O)[C@H](O)[C@@H](NS(=O)(=O)C(C)(C)C)c4ccc[n+]([O-])c4)C[C@@](O)([C@@H](OC(=O)c4ccccc4)[C@H]21)C3(C)C`, the IC50 was determined as 2670 nM in assay [1], 2450 nM in assay [2], 3030 nM in assay [3] and 2520 nM in assay [4].
`CC(=O)O[C@@]12CO[C@@H]1C[C@H](O)[C@@]1(C)C(=O)[C@H](O)C3=C(C)[C@@H](OC(=O)[C@H](O)[C@@H](NC(=O)OC(C)(C)C)c4ccccc4)C[C@@](O)([C@@H](OC(=O)c4ccccc4)[C@H]21)C3(C)C` [DOCETAXEL]: the IC50 was found to be 3030 nM in assay [1], 2730 nM in assay [2], 3070 nM in assay [3] and 2600 nM in assay [4].
Turning to `CC(=O)O[C@H]1C(=O)[C@@]2(C)[C@H]([C@H](OC(=O)c3ccccc3)[C@]3(O)C[C@H](OC(=O)[C@H](O)[C@@H](NC(=O)c4ccccc4)c4ccccc4)C(C)=C1C3(C)C)[C@]1(OC(C)=O)CO[C@@H]1C[C@@H]2O` [PACLITAXEL], the values for the IC50 in assay [2], in assay [3] and in assay [4] were 2860 nM, 3290 nM and 2730 nM, respectively.
As for `CC(=O)O[C@@]12CO[C@@H]1C[C@H](O)[C@@]1(C)C(=O)[C@H](O)C3=C(C)[C@@H](OC(=O)[C@H](O)[C@@H](NS(=O)(=O)C(C)(C)C)c4ccccc4)C[C@@](O)([C@@H](OC(=O)c4ccccc4)[C@H]21)C3(C)C`, the IC50 in assay [1] was 9540 nM; in assay [2], more than 10000 nM; in assay [3], 9120 nM; in assay [4] it was 7140 nM.
The matching figures for `CC(=O)O[C@@]12CO[C@@H]1C[C@H](O)[C@@]1(C)C(=O)[C@H](O)C3=C(C)[C@@H](OC(=O)[C@H](O)[C@@H](NS(=O)(=O)C(C)(C)C)c4cccc[n+]4[O-])C[C@@](O)([C@@H](OC(=O)c4ccccc4)[C@H]21)C3(C)C`: 2540 nM, 2540 nM, 2850 nM and 1950 nM.

By IC50 is commonly meant the concentration that inhibits the measured activity by half. The low end stands for greater potency in that assay, the high end for weaker potency in that assay.

(Values after ChEMBL document CHEMBL1139417, “Synthesis and biological evaluation of novel 3'-N-tert-butylsulfonyl analogues of docetaxel” (Bioorg Med Chem Lett, 2008).)
